Test system: Bifidobacterium lactis HNO19
Test: Growth test of Bifidobacterium lactis HNO19: organic acids in culture broth by HPLC
Format: cell-based
Conditions: HNO19 in MRS+0.05% cysteine medium with 1% carbon source, HPLC at 12 hours
Description: Bifidobacterium lactis HNO19 was purchased from Danisco. The strain was cultured in de Man Rogosa Sharpe (MRS) broth (Difco, Detroit, Md.) supplemented with 0.5 g/LL-cysteine and incubated for 24 h at 37° C. under anaerobic conditions. […] After the second passage, the culture was prepared for use as inoculum for the growth tests described below. Various carbon source stock solutions were sterilized by passing through 0.22 micron filters and used at 1% final concentration. […] The contents of lactic acid, acetic acid, propionic acid and butyric acid in the above-mentioned various combined culture broths were measured by high performance liquid chromatography (HPLC) at 12 hours.

With `OC[C@H]1O[C@@H](O[C@@H]2[C@@H](CO)O[C@](O)(CO)[C@H]2O)[C@H](O)[C@@H](O)[C@H]1O` [LOS, 4-O-β-D-galactopyranosyl-4-D-fructose] the “Contents of organic acids in the culture medium: Acetic acid” value was 0.238 ± 0.002, the “Contents of organic acids in the culture medium: Lactic acid” value was 0.034 ± 0.002 and the “Contents of organic acids in the culture medium: Total amount of organic acid” value was 0.272 ± 0.004.
